Reference: US8431530B2, “Compositions and methods for treating aids or cancer by inhibiting the secretion of microparticles” (priority 2009, dated 2013)

Key:
[1] = tested on: HIV-1 Nef-GFP secretion, cell line H; assay: HIV-1 Nef-GFP induced secretion, fluorescent plate reader assay; assay type: cell-based; details: for SMRmt/SMRwt ratio of secretion: HIV-1 Nef-GFP; for Increase in Secretion (relative to untransfected cells), exp condition/UT: HIV-1 Nef-GFP (sM1 column head prints GFP/sM1)
[2] = tested on: Gag-GFP + HIV-1wtNef-RFP secretion, THP-1 Monocyte; assay: Gag-GFP secretion in presence of wtNef-RFP, fluorescent plate reader assay; assay type: cell-based; details: Gag-GFP + HIV-1wtNef-RFP + peptide, 48 hours
Description: (§1) Cells were transfected with the pQBI-HIV Gag-GFP construct, wtNef-RFP, and either the antagonist (SMRwt peptide), the negative control SMRmt peptide, or a random peptide sM1 with Chariot for 48 hours. The conditioned supernatants from these cultures were assayed for GFP fluorescence by plate reader.

[3] = tested on: Gag-GFP + HIV-1wtNef-RFP secretion, Jurkat; assay: as above; assay type: cell-based; details: for Secretion relative to untransfected cells: Jurkat, Gag-GFP + HIV-1wtNef-RFP + peptide, 48 hours
Description: as §1

MDA-MB-231 cells = assay: Exosome (AChE marker) secretion from tumor cells, immunoblot; assay type: cell-based, human; details: MDA-MB-231, Chariot transfection, 48 hr, immunoblot densitometry normalized to tubulin; dose dependency in both compartments
Source text: FIG. 1 is a composite of diagrams showing the synthetic HIV-1 NefSMRwt peptide (antagonist) and HIV-1 NefSMRmt peptide (negative control) (panel A); the vector constructs expressing HIV-1 NefSMRwt peptide fused with GFP or HIV-1 NefSMRmt peptide fused with GFP (panel B); and the amount of acetylcholinesterase, a marker for exosomes, in MDA-MB-231 cells transfected with either HIV-1 NefSMRwt peptide (panelC) or SMRmt peptide (panel D). Untransfected MDA-MB-231 cells were used as negative controls. The cells were cultured for 48 hours in serum-free medium. One ml of supernatant was spun at 400,000×g. Supernatant pellets or set volume of cell lysate were run on PAGE, blotted, and probed with anti-AchE mAb (Acetylcholinesterase—1:1000 dilution; marker for exosomes). The cell lyasates were reprobed with anti-Tubulin mAb (1:4000). Bands were measured by densitometry, normalized against intracellular tubulin. Data shown here as percent relative to the untransfected control.
MDA-MB-231 cells were derived from human breast adenocarcinoma and […], and were obtained from the American Type Culture Collection (Manassas, Va.). […]
Pellets were resuspended in 1×SDS-PAGE loading buffer, separated by SDS-PAGE. […] Protein bands were detected by Western Blotting Luminol Reagent (Santa Cruz Biotechnology, Inc., Santa Cruz, Calif.). […]

[4] = tested on: NefGFP release from HEK293 cells; assay: Nef-GFP co-transfection secretion assay, GFP fluorescence of supernatant; assay type: cell-based; details: HEK293, 0.5 μg Nef-GFP + 0.5 μg peptide, Chariot, 48 h; relative to NefGFP+sM1 (100%)
Description: Therefore, a set of co-transfection experiments were performed. HEK293 cells were co-transfected with 0.5 μg of pQBI-HIV Nef-GFP (expresses wild type Nef protein) and either 0.5 μg of HIV-1 Nef SMRwt or SMRmut peptide or sM1 peptide (a totally random control peptide, ALAETCQNAWA (SEQ ID NO: 7)) with Chariot. Briefly, the wild-type Nef-GFP clone and the SMR peptides were complexed with Chariot reagent for 30 minutes at RT. The DNA/peptide/Chariot complex was added to HEK293 cells in serum-free media, and the cells were plated. Following incubation for 2 hours at 37° C., media with serum was added to the dish, and the cells were incubated at 37° C. for 48 h. The media was then collected and assayed for secretion using a spectrofluorimeter. The conditioned supernatants from these cultures were assayed for GFP fluorescence by plate reader.

Substance | SMRmt/SMRwt ratio of secretion [1] | Increase in Secretion (relative to untransfected cells), exp condition/UT [1] | Secretion relative to untransfected cells ([2]; first line) | Secretion relative to untransfected cells ([2]; second line (not explained)) | Secretion relative to untransfected cells ([3]; first line) | Secretion relative to untransfected cells ([3]; second line (not explained)) | AChE (exosome marker) intracellularly and in the cell supernatant (MDA-MB-231 cells) | release of NefGFP into the extracellular supernatant (GFP fluorescence) [4] | release of Gag virus-like particles in the presence of wtNef-RFP (in words, Table III) ([3]; Jurkat and THP-1, Gag-GFP + wtNef-RFP)
H2N-AGFPVAAAGFPVDYKDDDDK-OH (H-AGFPVAAAGFPVDYKDDDDK-OH) [SMRmt] | 24.8y | 57.04x | 49.27x | 22.24x | 55.73x | 43.51x | no effect | no effect | –
H-VGFPVAAVGFPVDYKDDDDK-OH [SMRwt] | 1.0y | 2.3x | 0.95x | 0.91x | 1.3x | 1.16x | knocked down AChE intracellularly and in the cell supernatant | antagonizes the release of NefGFP into the extracellular supernatant | blocks release of Gag virus-like particles
